Reference: patent US11634396B2 (priority 2021, dated 2023)

molecular target: human mOR (Homo sapiens (Human), UniProt P35372); assay: cell-based
Sequence (P35372 whole entry): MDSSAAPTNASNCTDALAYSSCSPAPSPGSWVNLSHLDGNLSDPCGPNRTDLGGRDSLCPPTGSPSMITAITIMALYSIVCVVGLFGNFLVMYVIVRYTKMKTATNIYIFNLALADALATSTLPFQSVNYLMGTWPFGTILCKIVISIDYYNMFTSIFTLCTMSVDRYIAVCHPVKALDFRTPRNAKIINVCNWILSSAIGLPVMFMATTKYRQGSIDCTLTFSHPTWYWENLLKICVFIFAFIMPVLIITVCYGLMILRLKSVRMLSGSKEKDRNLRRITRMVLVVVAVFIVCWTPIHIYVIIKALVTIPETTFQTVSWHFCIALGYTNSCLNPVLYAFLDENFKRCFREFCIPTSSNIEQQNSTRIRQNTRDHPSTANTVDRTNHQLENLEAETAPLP

Structure (SMILES) | IC50
CN(C)[C@H](CNC(=O)C[C@H](c1ccncc1)C1(C(F)(F)F)CC1)Cc1ccc(O)cc1Cl [Compound 261, (R)-N-((S)-3-(2-chloro-4-hydroxyphenyl)-2-(dimethylamino)propyl)-3-(pyridin-4-yl)-3-(1-(trifluoromethyl)cyclopropyl)propanamide] | < 300 nM
CN(C)[C@H](CNC(=O)C[C@H](c1cccnc1)C1(C(F)(F)F)CC1)Cc1ccc(O)cc1Cl [Compound 262, (R)-N-((S)-3-(2-chloro-4-hydroxyphenyl)-2-(dimethylamino)propyl)-3-(pyridin-3-yl)-3-(1-(trifluoromethyl)cyclopropyl)propanamide] | < 300 nM
Cc1cc(O)ccc1C[C@@H](CNC(=O)C[C@H](c1cncs1)C1CC1)N(C)C [Compound 264, (S)-3-cyclopropyl-N-((S)-2-(dimethylamino)-3-(4-hydroxy-2-methylphenyl)propyl)-3-(thiazol-5-yl)propanamide] | < 300 nM
Cc1cc(O)ccc1C[C@@H](CNC(=O)C[C@H](c1ccoc1)C1(C(F)(F)F)CC1)N(C)C [Compound 265, (R)-N-((S)-2-(dimethylamino)-3-(4-hydroxy-2-methylphenyl)propyl)-3-(furan-3-yl)-3-(1-(trifluoromethyl)cyclopropyl)propanamide] | < 300 nM
Cc1ccc([C@@H](CC(=O)NC[C@H](Cc2ccc(O)cc2C)N(C)C)C2(C(F)(F)F)CC2)o1 [Compound 266, (S)-N-((S)-2-(dimethylamino)-3-(4-hydroxy-2-methylphenyl)propyl)-3-(5-methylfuran-2-yl)-3-(1-(trifluoromethyl)cyclopropyl) propanamide] | < 300 nM
Cc1cc(O)ccc1C[C@@H](CNC(=O)C[C@H](c1cncs1)C1(C(F)(F)F)CC1)N(C)C [Compound 268, (S)-N-((S)-2-(dimethylamino)-3-(4-hydroxy-2-methylphenyl)propyl)-3-(thiazol-5-yl)-3-(1-(trifluoromethyl)cyclopropyl)propanamide] | < 300 nM
Cc1cc(O)ccc1C[C@@H](CNC(=O)C[C@H](c1cccnc1)C1(C(F)(F)F)CC1)N(C)C [Compound 269, (R)-N-((S)-2-(dimethylamino)-3-(4-hydroxy-2-methylphenyl)propyl)-3-(pyridin-3-yl)-3-(1-(trifluoromethyl)cyclopropyl)propanamide] | < 300 nM
Cc1cc(O)ccc1C[C@@H](CNC(=O)CC(c1ccncc1)C1(C(F)(F)F)CC1)N(C)C (stereo partly drawn) [Compound 270, N-((S)-2-(dimethylamino)-3-(4-hydroxy-2-methylphenyl)propyl)-3-(pyridin-4-yl)-3-(1-(trifluoromethyl)cyclopropyl)propanamide] | < 300 nM
Cc1cc(O)ccc1C[C@@H](CNC(=O)CC(c1ncccn1)C1(C(F)(F)F)CC1)N(C)C (stereo partly drawn) [Compound 271, N-((S)-2-(dimethylamino)-3-(4-hydroxy-2-methylphenyl)propyl)-3-(pyrimidin-2-yl)-3-(1-(trifluoromethyl)cyclopropyl)propanamide] | < 300 nM
Cc1cc(O)ccc1C[C@@H](CNC(=O)CC(c1cccnc1)C1(C(F)(F)F)CC1)N(C)C (stereo partly drawn) [Compound 272, N-((S)-2-(dimethylamino)-3-(4-hydroxy-2-methylphenyl)propyl)-3-(pyridin-3-yl)-3-(1-(trifluoromethyl)cyclopropyl)propanamide] | < 300 nM
Cc1cc(O)ccc1C[C@@H](CNC(=O)CC(c1ncc(Cl)cn1)C1(C(F)(F)F)CC1)N(C)C (stereo partly drawn) [Compound 274, 3-(5-chloropyridmidin-2-yl)-N-((S)-2-(dimethylamino)-3-(4-hydroxy-2-methylphenyl)propyl)-3-(1-(trifluoromethyl)cyclopropyl) propanamide] | < 300 nM
CC(C)[C@H](CC(=O)NC[C@H](Cc1ccc(O)c(Cl)c1)N(C)C)c1cccnc1 [Compound 276, (S)-N-((S)-3-(3-chloro-4-hydroxyphenyl)-2-(dimethylamino)propyl)-4-methyl-3-(pyridin-3-yl)pentanamide] | < 300 nM
